From ChEMBL document CHEMBL1201862, “PubChem BioAssay data set” (2004)
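Following 48 hours of exposure in 96-well plates, responses at five concentrations were used to interpolate endpoints linearly. Abbreviation: GI50, concentration required for 50% inhibition of growth.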 Calls of active or inactive are those of the source. Cut-off read from the data, not from the text of the source: active = GI50 up to about 1.1 µM and inactive = higher.

Tests used:
Test in all cases: NCI-60 cell line screen, 48 h
[1] = test system: OVCAR-4
[2] = test system: SF-295
[3] = test system: MOLT-4
[4] = test system: A549
[5] = test system: IGROV-1
[6] = test system: SF-268
[7] = test system: HOP-62
[8] = test system: SK-MEL-5
[9] = test system: SK-MEL-2
[10] = test system: KM12
[11] = test system: SF-539
[12] = test system: RPMI-8226
[13] = test system: COLO 205
[14] = test system: SK-OV-3
[15] = test system: HT-29
[16] = test system: OVCAR-3
[17] = test system: CCRF-CEM
[18] = test system: UACC-257
[19] = test system: MCF7
[20] = test system: U-251
[21] = test system: DMS-273
[22] = test system: UO-31
[23] = test system: NCI-H460
[24] = test system: RXF 393
[25] = test system: EKVX
[26] = test system: OVCAR-5
[27] = test system: HL-60
[28] = test system: NCI-H522
[29] = test system: A498
[30] = test system: HCC 2998
[31] = test system: SNB-19
[32] = test system: SN12C
[33] = test system: Malme-3M
[34] = test system: HOP-92
[35] = test system: SW-620
[36] = test system: HOP-18
[37] = test system: NCI-H23
[38] = test system: SK-MEL-28
[39] = test system: OVCAR-8
[40] = test system: UACC-62
[41] = test system: HCT-15
[42] = test system: HCT-116
[43] = test system: SNB-75
[44] = test system: M19-MEL
[45] = test system: DMS-114
[46] = test system: K562
[47] = test system: DLD-1
[48] = test system: NCI/ADR-RES
[49] = test system: KM-20L2
[50] = test system: NCI-H226
[51] = test system: XF498
[52] = test system: LOX IMVI
[53] = test system: M14
[54] = test system: SNB-78
[55] = test system: LXFL 529
[56] = test system: SR
[57] = test system: CAKI-1
[58] = test system: TK-10
[59] = test system: 786-0
[60] = test system: ACHN

SMILES: O=[N+]([O-])c1cccc2c1[nH]c1c(-c3ccccc3)nccc12
- GI50 [1]: 2.02 µM (inactive)
- GI50 [2]: 3.08 µM (inactive)
- GI50 [3]: 1.71 µM (inactive)
- GI50 [4]: 2.67 µM (inactive)
- GI50 [5]: 1.8 µM (inactive)
- GI50 [6]: 4.04 µM (inactive)
- GI50 [7]: 1.87 µM (inactive)
- GI50 [8]: 1.53 µM (inactive)
- GI50 [9]: 1.07 µM (active)
- GI50 [10]: 3.03 µM (inactive)
- GI50 [11]: 3.19 µM (inactive)
- GI50 [12]: 1.46 µM (inactive)
- GI50 [13]: 2.02 µM (inactive)
- GI50 [14]: 2.01 µM (inactive)
- GI50 [15]: 1.58 µM (inactive)
- GI50 [16]: 1.36 µM (inactive)
- GI50 [17]: 1.68 µM (inactive)
- GI50 [18]: 1.94 µM (inactive)
- GI50 [19]: 2.33 µM (inactive)
- GI50 [20]: 2.51 µM (inactive)
- GI50 [21]: 2.43 µM (inactive)
- GI50 [22]: 1.11 µM (active)
- GI50 [23]: 2.33 µM (inactive)
- GI50 [24]: 2.54 µM (inactive)
- GI50 [25]: 3.21 µM (inactive)
- GI50 [26]: 3.9 µM (inactive)
- GI50 [27]: 1.63 µM (inactive)
- GI50 [28]: 849 nM (active)
- GI50 [29]: 3.72 µM (inactive)
- GI50 [30]: 3.31 µM (inactive)
- GI50 [31]: 3.19 µM (inactive)
- GI50 [32]: 2.7 µM (inactive)
- GI50 [33]: 2.24 µM (inactive)
- GI50 [34]: 0.622 µM (active)
- GI50 [35]: 3.41 µM (inactive)
- GI50 [36]: 0.274 µM (active)
- GI50 [37]: 2.07 µM (inactive)
- GI50 [38]: 3.84 µM (inactive)
- GI50 [39]: 3.52 µM (inactive)
- GI50 [40]: 1.74 µM (inactive)
- GI50 [41]: 2.61 µM
- GI50 [42]: 2.39 µM (inactive)
- GI50 [43]: 2.4 µM (inactive)
- GI50 [44]: 2.07 µM (inactive)
- GI50 [45]: 1.27 µM (inactive)
- GI50 [46]: 1.99 µM (inactive)
- GI50 [47]: 2.85 µM (inactive)
- GI50 [48]: 1.63 µM (inactive)
- GI50 [49]: 2.45 µM (inactive)
- GI50 [50]: 1.58 µM (inactive)
- GI50 [51]: 2.65 µM (inactive)
- GI50 [52]: 2.73 µM (inactive)

SMILES: O=C1c2ccccc2-c2ccccc2C(=O)C1(Br)Br
- GI50 [1]: 13.7 µM (inactive)
- GI50 [2]: 16.1 µM (inactive)
- GI50 [3]: 2.67 µM (inactive)
- GI50 [4]: 17.7 µM (inactive)
- GI50 [5]: 14 µM (inactive)
- GI50 [6]: 14.2 µM (inactive)
- GI50 [7]: 18.2 µM (inactive)
- GI50 [8]: 17.3 µM (inactive)
- GI50 [9]: 9.75 µM (inactive)
- GI50 [10]: 17.7 µM (inactive)
- GI50 [53]: 5.33 µM (inactive)
- GI50 [11]: 9.51 µM (inactive)
- GI50 [12]: 1.84 µM (inactive)
- GI50 [13]: 8.24 µM (inactive)
- GI50 [54]: 8.11 µM (inactive)
- GI50 [14]: 19.5 µM (inactive)
- GI50 [15]: 15.4 µM (inactive)
- GI50 [16]: 14.1 µM (inactive)
- GI50 [17]: 2.52 µM (inactive)
- GI50 [18]: 10.7 µM (inactive)
- GI50 [20]: 15.8 µM (inactive)
- GI50 [21]: 15.6 µM (inactive)
- GI50 [55]: 7.96 µM (inactive)
- GI50 [22]: 14.4 µM (inactive)
- GI50 [23]: 19.1 µM (inactive)
- GI50 [24]: 3.56 µM (inactive)
- GI50 [56]: 2.02 µM (inactive)
- GI50 [25]: 14.6 µM (inactive)
- GI50 [26]: 18.1 µM (inactive)
- GI50 [27]: 2.15 µM (inactive)
- GI50 [28]: 2150 nM (inactive)
- GI50 [29]: 16.6 µM (inactive)
- GI50 [30]: 18.2 µM (inactive)
- GI50 [31]: 17.7 µM (inactive)
- GI50 [32]: 11.8 µM (inactive)
- GI50 [33]: 3.93 µM (inactive)
- GI50 [34]: 3.21 µM (inactive)
- GI50 [57]: 5.87 µM (inactive)
- GI50 [35]: 3.8 µM (inactive)
- GI50 [36]: 13.4 µM (inactive)
- GI50 [37]: 13.4 µM (inactive)
- GI50 [38]: 7.28 µM (inactive)
- GI50 [58]: 10.6 µM (inactive)
- GI50 [39]: 11 µM (inactive)
- GI50 [40]: 7.36 µM (inactive)
- GI50 [41]: 12.4 µM
- GI50 [42]: 7.73 µM (inactive)
- GI50 [43]: 12.9 µM (inactive)
- GI50 [44]: 8.69 µM (inactive)
- GI50 [45]: 15.2 µM (inactive)
- GI50 [46]: 4.13 µM (inactive)
- GI50 [59]: 13 µM (inactive)
- GI50 [47]: 6.75 µM (inactive)
- GI50 [49]: 16.9 µM (inactive)
- GI50 [50]: 17.7 µM (inactive)
- GI50 [60]: 11.7 µM (inactive)
- GI50 [52]: 9.27 µM (inactive)

SMILES: O=C1CCc2ccc(O)c(c2)Oc2ccc(cc2)[C@@H]2O[C@@H]2CO1
- GI50 [1]: 41 µM (inactive)
- GI50 [2]: 56.1 µM (inactive)
- GI50 [3]: 23.9 µM (inactive)
- GI50 [4]: 56.8 µM (inactive)
- GI50 [5]: 17.8 µM (inactive)
- GI50 [6]: > 10 µM (inactive)
- GI50 [7]: > 100 µM (inactive)
- GI50 [8]: 23.6 µM (inactive)
- GI50 [9]: 34 µM (inactive)
- GI50 [10]: 72.8 µM (inactive)
- GI50 [53]: 41.6 µM (inactive)
- GI50 [11]: 70.6 µM (inactive)
- GI50 [12]: 28.9 µM (inactive)
- GI50 [13]: 98.9 µM (inactive)
- GI50 [14]: 27 µM (inactive)
- GI50 [15]: 89.3 µM (inactive)
- GI50 [16]: 32.8 µM (inactive)
- GI50 [17]: 76 µM (inactive)
- GI50 [18]: 48.4 µM (inactive)
- GI50 [20]: 67.8 µM (inactive)
- GI50 [55]: 33.2 µM (inactive)
- GI50 [22]: 23.8 µM (inactive)
- GI50 [56]: 30.1 µM (inactive)
- GI50 [25]: 59.8 µM (inactive)
- GI50 [26]: 54.2 µM (inactive)
- GI50 [27]: 37.9 µM (inactive)
- GI50 [29]: 29 µM (inactive)
- GI50 [30]: > 100 µM (inactive)
- GI50 [31]: 82.6 µM (inactive)
- GI50 [32]: 62.4 µM (inactive)
- GI50 [33]: 22.2 µM (inactive)
- GI50 [34]: 23.7 µM (inactive)
- GI50 [57]: 29.6 µM (inactive)
- GI50 [35]: 53.6 µM (inactive)
- GI50 [36]: 25.6 µM (inactive)
- GI50 [37]: 38.4 µM (inactive)
- GI50 [38]: 49.2 µM (inactive)
- GI50 [58]: 73.5 µM (inactive)
- GI50 [39]: 75.5 µM (inactive)
- GI50 [40]: 30.5 µM (inactive)
- GI50 [42]: 48.2 µM (inactive)
- GI50 [43]: 37.9 µM (inactive)
- GI50 [44]: 38.1 µM (inactive)
- GI50 [45]: 20 µM (inactive)
- GI50 [46]: 24.6 µM (inactive)
- GI50 [59]: > 100 µM (inactive)
- GI50 [47]: 55.8 µM (inactive)
- GI50 [49]: 88.5 µM (inactive)
- GI50 [50]: 40.5 µM (inactive)
- GI50 [60]: 61.8 µM (inactive)
- GI50 [51]: 5.26 µM (inactive)
- GI50 [52]: 40.8 µM (inactive)
